According to EP0138995B1, “REGULATION OF ENZYMES WHICH UTILIZE TETRAHYDROBIOPTERIN OR TETRAHYDROFOLATE COFACTORS WITH 6, 6-DISUBSTITUTED-TETRAHYDROPTERIDINES” (South Alabama Medical Science Foundation, priority 1983, dated 1984):
Where two headings read alike, the source gives them in different places.

What was measured:
[1] = target: T1, Beef Liver Dihydropteridine Reductase (Bos taurus, UniProt Q3T0Z7); experiment: Quinoid dihydropterin as substrate for dihydropteridine reductase (beef liver); type: biochemical; conditions: substrate produced by Peroxidase + H2O2
T1 construct: from tissue; host or cells: beef liver
T1 sequence (Q3T0Z7 1-242): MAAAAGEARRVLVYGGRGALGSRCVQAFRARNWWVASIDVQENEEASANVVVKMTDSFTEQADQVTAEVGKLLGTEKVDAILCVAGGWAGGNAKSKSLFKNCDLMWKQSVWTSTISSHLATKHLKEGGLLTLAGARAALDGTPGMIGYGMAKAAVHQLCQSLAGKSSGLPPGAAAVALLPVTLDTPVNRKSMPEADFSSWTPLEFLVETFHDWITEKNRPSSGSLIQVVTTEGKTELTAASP
Method: (§1) The quinoid was generated from 6,6-Me₂PH₄, as outlined previously. […] Peroxidase (6 units/ml final volume) was temperature equilibrated in 0.1 M Tris·HCl, pH 7.4, at 27° for 5 minutes. H₂O₂ (1.2 mM final concentration) was then added, followed by 6,6-Me₂PH₄. […] At 5 minutes, 6,6-Me₂PH₄ was introduced and monitored at 340 nm. […] Reaction was then initiated with dihydropteridine reductase (0.01 units/ml). Rates were calculated from the enzyme dependent decrease in O.D. at 340 nm, using an extinction coefficient of 9.8 for the chemically synthesized substrate and 6.2 for the peroxidase- and phenylalanine-hydroxylase-containing reactions in which the pterin is maintained in the quinoid form.

[2] = target: T2, Rat Liver Phenylalanine Hydroxylase (Rattus norvegicus, UniProt P04176); conditions: data from the literature (footnotes c, d), cited from earlier work
T2 construct: Cofactor for Rat Liver Phenylalanine Hydroxylase; from tissue; host or cells: rat liver
T2 sequence (P04176 1-453): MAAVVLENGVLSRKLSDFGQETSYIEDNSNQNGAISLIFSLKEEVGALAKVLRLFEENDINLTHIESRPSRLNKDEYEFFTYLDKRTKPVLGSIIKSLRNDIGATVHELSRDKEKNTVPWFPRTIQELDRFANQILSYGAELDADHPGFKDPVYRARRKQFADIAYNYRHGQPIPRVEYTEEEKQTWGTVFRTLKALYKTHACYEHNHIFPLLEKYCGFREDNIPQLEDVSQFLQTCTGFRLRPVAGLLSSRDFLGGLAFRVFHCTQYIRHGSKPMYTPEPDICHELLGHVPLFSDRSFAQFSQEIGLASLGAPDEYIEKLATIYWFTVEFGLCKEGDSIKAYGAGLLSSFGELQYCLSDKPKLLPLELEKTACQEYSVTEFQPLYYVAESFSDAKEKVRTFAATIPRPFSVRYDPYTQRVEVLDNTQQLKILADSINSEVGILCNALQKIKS

[3] = cited from earlier work
[4] = rats, 125 mg BH4/kg intravenously, cited from earlier work
[5] = orally 2.5 mg/kg; cited from earlier work
[6] = cited from earlier work; for concentration: read-out: blood level
[7] = cited from earlier work; remark: listed apart in the source
[8] = target: T2, Rat Liver Phenylalanine Hydroxylase; experiment: Phenylalanine hydroxylase cofactor assay (cofactor consumption and tyrosine formation); type: biochemical; conditions: for Relative Vmax: relative to l-BH4 = 1.0; for 6,6-Me2PH4 oxidized: 2-3 minutes, no regenerating system; for 6,6-Me2PH4 tyrosine: ratio cofactor oxidized to tyrosine produced
Method: The 6,6-dimethyl substituted tetrahydropterin was tested for cofactor activity in a standard phenylalanine hydroxylase assay in which both cofactor consumption and tyrosine formation were monitored. […] An apparent Michaelis constant was determined at 1 mM phenylalanine and atmospheric oxygen with concentrations of 6,6-Me₂PH₄ ranging from 0.02-0.3 mM. The effect of a second methyl at the 6-position slightly increases the affinity for phenylalanine hydroxylase, since the apparent Km was two-thirds to three-quarters that of 6-methyl and 6,7-dimethyltetrahydropterin (Table IV). […] The maximum velocity of the reaction with 6,6-Me₂PH₄ is similar to that with the 6,7-dimethyl compound and about 6 times slower than with the natural cofactor (Table IV).

[9] = target: T3, phenylalanine hydroxylase (Rattus norvegicus, UniProt P04176); experiment: Inhibition of phenylalanine hydroxylase by dihydropterins; type: biochemical; conditions: competitive inhibition; 6-MePH4 as cofactor 0.05 mM to 0.3 mM; read-out: apparent Ki
T3 construct: from tissue
T3 sequence (P04176 1-453): T2 sequence (P04176 1-453)
Method: Measurements were made under standard assay conditions with cofactor concentration varied between 0.05 and 0.3 mM. Stock solutions of 6,6-Me₂PH₂ were in 0.1 M assay buffer.
Standard assay conditions, with 6-MePH₄ as cofactor over a range of 0.05 mM to 0.3 mM, were employed.

[10] = target: T4, Sheep Liver Dihydropteridine Reductase (Ovis aries, UniProt A0ACI6QPJ5); experiment: Quinoid dihydropterin as substrate for dihydropteridine reductase (sheep liver); type: biochemical; conditions: substrate produced by Peroxidase + H2O2
T4 sequence (A0ACI6QPJ5 46-254): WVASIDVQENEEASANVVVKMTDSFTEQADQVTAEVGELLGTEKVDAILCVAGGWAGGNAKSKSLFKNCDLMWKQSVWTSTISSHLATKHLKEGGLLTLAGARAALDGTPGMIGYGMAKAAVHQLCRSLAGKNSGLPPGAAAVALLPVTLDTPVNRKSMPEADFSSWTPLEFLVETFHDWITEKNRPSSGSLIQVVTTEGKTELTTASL
Method: as §1, with “6,6-Me₂PH₄. Conversion to q-6,6-Me₂PH₂, monitored at 340 nm, was complete within a few seconds. • (iii) Generation by phenylalanine hydroxylase:” for “6,6-Me₂PH₄.”, “nm. Conversion of 6,6-Me₂PH₄ to quinoid dihydropterin was complete in 1-7 minutes, depending on the concentration.” for “nm.”, “form. […] This Km was obtained regardless of the method of generation of the quinoid dihydropterin. The Vmax's were also the same for the dihydropteridine reductase catalyzed reduction of quinoid generated by any of the three methods (Table VI). Thus, the quinoid products of each procedure appear to behave equally.” for “form.”

[11] = Rate of air oxidation of 6,6-Me2PH4; type: physicochemical; conditions: 0.1 M Tris·HCl, pH 7.4 at 27°
Method: Stability. The rate of air oxidation of 6,6-Me₂PH₄ was measured in 0.1 M Tris·HCl, pH 7.4 at 27°, i.e., enzyme assay conditions. […] This is similar to the constant previously determined for 6,7-Me₂PH₄.

[12] = Preliminary in vivo testing: brain concentration after intraperitoneal injection; conditions: mice, intraperitoneally, 0.1 µmole/g body weight
Method: Preliminary in vivo testing of 6,6-disubstituted pteridines has been conducted. 6,6-Dimethyltetrahydropterin was injected intraperitoneally into mice at a dose rate of 0.1 µmole/g body weight. Maximum brain concentration was reached about one hour after injection and was more than 30 times higher than the maximum level reached by tetrahydrobiopterin injected in a similar manner.

[13] = 0.2 mM cofactor, l-BH4: sigmoidal curve, Hill coefficient = 2, read-out: Km' for Phenylalanine
[14] = 1 mM phenylalanine, atmospheric oxygen, 0.1 M Tris·HCl, pH 7.4, 27°C, read-out: Km' for Cofactor

Compound: CC1(c2ccccc2)CNC2=NC(N)=NC(=O)C2=N1 (centres unmarked) [Compound 6-Ph-6-MePH2, 2-Amino-4-hydroxy-6-methyl-6-phenyl-quinoid-dihydro-pteridine]
- Relative Vmax Beef [1]: 0.6

Compound: C[C@H](O)[C@H](O)[C@H]1CNc2nc(N)[nH]c(=O)c2N1 [l-BH4, tetrahydrobiopterin]
- Km [2, 13]: 170 µM
- Km [2, 14]: 21 ± 3 µM
- increase in CSF BH4 ([3]; 2 mg BH4 (i.v.)/kg/day for 3 days, 1 day after the last injection, BH4-synthesis-deficient child): no increase
- CSF BH4 ([3]; 2.5 hours after oral treatment, in two equal doses, from 2 ng before): 44 ng/mL
- CSF BH4 as share of that expected assuming uniform body distribution and retention ([3]; 2.5 hours after oral treatment): 0.22%
- maximum increase of BH4 in the striatum ([4]; in 15 mins): 30%
- striatal increase as share of the concentration administered assuming uniform body distribution [4]: 0.2%
- time of return of striatal BH4 to normal [4]: less than 2 hours

Compound: CC(O)C(O)C1=Nc2c(nc(N)[nH]c2=O)NC1 (centres unmarked) [Dihydrobiopterin]
- time normal levels of phenylalanine were maintained [5]: 24 h

Compound: CC1CNc2nc(N)[nH]c(=O)c2N1 (centres unmarked) [Compound 6-MePH4, 6-methyltetrahydropterin]
- share of striatal 6-MePH4 remaining in the fully reduced tetrahydro-form ([6]; 2 hrs after injection, Kapatos and Kaufman): over 85%
- share of 6-MePH4 in the brain in the reduced form ([6]; Curtius et al.): 30%
- efficiency of entry into the brain, times that of an equal dose of BH4 ([6]; rats, 0.11 µmole (i.p.)/gm body weight): up to 10
- brain level ([6]; rats, 0.11 µmole (i.p.)/gm, at 30 minutes, maintained until 2 hours): 2 nmoles/g brain
- brain level as share of that expected assuming equal body distribution ([6]; rats, 0.11 µmole (i.p.)/gm): 2%
- concentration ([6]; rats, i.p., at 30 minutes): 40 µM
- concentration ([6]; rats, i.p., by 2 hrs): 10 µM
- half life for retention by the brain ([6]; rats, i.p.): 180 min
- half life for retention by the plasma ([6]; rats, i.p.): 42 min
- CSF level ([7]; at 9.5 hours after intravenous injection of 20 mg/kg): 0.06 µg/mL
- CSF level ([7]; three hours after intravenous injection of 20 mg/kg, 180 min): 0.45 µg/mL
- CSF level as share of that expected on the basis of equal body distribution ([7]; three hours after intravenous injection of 20 mg/kg): 2.2%
- CSF 5-hydroxyindoleacetic acid ([7]; two hours after 8 mg/kg, from 6 before, normal = 30): 18 ng/mL
- CSF homovanillic acid ([7]; two hours after 8 mg/kg, from 9 before, normal 132): 22 ng/mL
- Relative Vmax [8]: 0.77

Compound: C[C@H](O)[C@H](O)C1=Nc2c(nc(N)[nH]c2=O)NC1 [7,8-dihydrobiopterin, reference compound]
- Ki [9]: 50 µM

Compound: quinoid dihydrobiopterin [dihydro-biopterin (natural isomer), reference compound]
- Km [1]: 0.004 mM
- Relative Vmax Beef [1]: 0.5
- Km [10]: 0.004 mM
- Relative Vmax Sheep [10]: 0.5

Compound: CC1N=C2C(=O)N=C(N)N=C2NC1C (centres unmarked) [6,7-Me2PH2]
- Relative Vmax Sheep [10]: 2

Compound: CC1Nc2nc(N)[nH]c(=O)c2NC1C (centres unmarked) [6,7-Me2PH4, 6,7-dimethyltetrahydropterin]
- Km [2, 13]: 800 ± 100 µM
- Km [2, 14]: 90 ± 10 µM
- Relative Vmax ([2]; relative to l-BH4 = 1.0): 0.17

Compound: CC1(C)CNc2nc(N)[nH]c(=O)c2N1 [6,6-Me2PH4, 6,6-Dimethyltetrahydropterin]
- half-life [11]: 23 min
- pseudo first order rate constant of air oxidation [11]: 0.03 min⁻¹
- maximum brain concentration, times higher than the maximum level reached by tetrahydrobiopterin [12]: more than 30
- time after injection at which maximum brain concentration was reached [12]: about one
- coupling of the reaction (tyrosine formed per cofactor molecule consumed) [8]: completely coupled reaction
- maximum velocity, times slower than with the natural cofactor [8]: about 6
- Tyrosine produced ([8]; Initial [6,6-Me2PH4] 0.01 mM): 4.27 nmol
- 6,6-Me2PH4 oxidized ([8]; Initial [6,6-Me2PH4] 0.01 mM): 4.4 nmol
- Tyrosine produced ([8]; Initial [6,6-Me2PH4] 0.03 mM): 9.77 nmol
- 6,6-Me2PH4 oxidized ([8]; Initial [6,6-Me2PH4] 0.03 mM): 9.1 nmol
- Tyrosine produced ([8]; Initial [6,6-Me2PH4] 0.06 mM): 12.57 nmol
- 6,6-Me2PH4 oxidized ([8]; Initial [6,6-Me2PH4] 0.06 mM): 11.76 nmol
- Tyrosine produced ([8]; Initial [6,6-Me2PH4] 0.1 mM): 19.25 nmol
- 6,6-Me2PH4 oxidized ([8]; Initial [6,6-Me2PH4] 0.1 mM): 21.18 nmol
- 6,6-Me2PH4 tyrosine ([8]; Initial [6,6-Me2PH4] 0.01 mM): 1.03
- 6,6-Me2PH4 tyrosine ([8]; Initial [6,6-Me2PH4] 0.03 mM): 0.93
- 6,6-Me2PH4 tyrosine ([8]; Initial [6,6-Me2PH4] 0.06 mM): 0.94
- 6,6-Me2PH4 tyrosine ([8]; Initial [6,6-Me2PH4] 0.1 mM): 1.10
- Relative Vmax [8]: 0.17
